According to patent US20260256738A1, “METHODS OF TREATING CANCER WITH A RAS MUTATION” (Immuneering Corporation, priority 2023, published 2026):

Key:
[1] = Microsome Stability (% remaining @1 hour); type: in vitro ADME; conditions: Human; 2 μM
Caco-2 = Caco-2 permeability; conditions: 10 μM, 2 hrs
[2] = Microsome Stability (% remaining @1 hour); type: in vitro ADME; conditions: SD Rat; 2 μM
[3] = Plasma Stability (% remaining @2 hour); type: in vitro ADME; conditions: Human; 2 μM
[4] = Plasma Stability (% remaining @2 hour); type: in vitro ADME; conditions: SD Rat; 2 μM
[5] = Plasma Stability (% remaining @2 hour); type: in vitro ADME; conditions: CD-1 Mouse; 2 μM
CYP450 2D6 = CYP450 2D6 (Homo sapiens, UniProt P10635); assay: CYP450 Panel; conditions: 10 μM; substrate dextromethorphan; in % (unit assumed)
pERK in A549 (KRAS-G12S) = assay: Cell-based pERK dose response / phospho-ERK screen in A549; design: species or system Human; conditions: for pERK: total ERK (% relative to vehicle): A549 (KRAS G12S), 10 μM for 2 hours
Experimental: Materials and Methods: A549 or A375 cells were seeded in 6-well plates at an appropriate seeding density on day 0. On day 2 or 3, after checking the health and confluency of cells, the media was aspirated and replaced with 1 mL media containing a predetermined concentration of compound and incubated for 2 hours. After 2 hours, the media was aspirated, and the cells washed 2 times with cold PBS. Cells were lysed on ice, with 50 μL 1× CST lysis buffer+1 mM PMSF for 5 minutes. After 5 minutes, cells were removed using a scraper and transferred to cold 1.5 mL tubes, and centrifuged for 10 min, 4° C., 14,000×g. Supernatant was gently removed and snap frozen in liquid nitrogen. Protein concentration of the lysate was determined using Bradford Reagent (analyzed using SpectraMax M2E) and diluted to 1 mg/mL or pERK or 1.5 mg/mL for pMEK analysis. […] All dilutions were in Milk-free antibody diluent.

CYP450 1A2 = biological target: T1, CYP450 1A2 (Homo sapiens, UniProt P05177); assay: CYP450 Panel; conditions: 10 μM; substrate phenacetin; in % (unit assumed)
T1 sequence (P05177 1-516): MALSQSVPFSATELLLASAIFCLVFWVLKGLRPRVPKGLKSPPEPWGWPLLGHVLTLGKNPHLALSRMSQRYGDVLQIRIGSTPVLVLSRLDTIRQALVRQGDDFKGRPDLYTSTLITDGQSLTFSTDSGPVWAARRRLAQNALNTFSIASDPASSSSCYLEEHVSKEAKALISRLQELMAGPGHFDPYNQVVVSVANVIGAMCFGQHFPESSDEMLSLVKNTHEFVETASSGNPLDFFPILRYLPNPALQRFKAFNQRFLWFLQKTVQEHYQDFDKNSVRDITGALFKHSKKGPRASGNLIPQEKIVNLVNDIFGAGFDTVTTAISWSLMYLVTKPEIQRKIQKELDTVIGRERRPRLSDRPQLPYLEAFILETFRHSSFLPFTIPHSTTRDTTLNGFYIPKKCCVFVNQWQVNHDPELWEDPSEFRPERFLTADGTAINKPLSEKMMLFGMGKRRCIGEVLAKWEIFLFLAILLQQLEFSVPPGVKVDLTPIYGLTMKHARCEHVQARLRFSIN

hERG Channel = hERG Channel (Homo sapiens, UniProt Q12809); assay: biochemical
[6] = eLogD (lipophilicity; pH=7.4); type: physicochemical
Experimental: Test compounds were dissolved in DMSO at a concentration of 10 mM and further diluted with methanol:water 1:1. Samples were analyzed using gradient HPLC with three different isocratic mobile phases of 0.25% octanol in methanol (60, 65 and 70%) and 20 mM MOPS buffer (pH 7.4) with decylamine. If needed, (for low E log Doct compounds) the isocratic mobile phases were adjusted to e.g. 40, 45 and 50% methanol. Peaks were detected using a diode array at absorbance 220-320 nm.
Capacity factors data (k′_(tr−_t0)/t0) obtained at various amounts of methanol were extrapolated to 0% methanol and k′w values are determined using a linear procedure. E log Doct (7.4) is calculated using a series of reference standards with known Log D values. Each experiment was performed in triplicate.

[7] = Microsome Stability (% remaining @1 hour); type: in vitro ADME; conditions: Beagle Dog; 2 μM
CYP450 2B6 = biological target: T2, CYP450 2B6 (Homo sapiens, UniProt P20813); assay: CYP450 Panel; type: in vitro ADME; conditions: 10 μM; substrate bupropion
T2 sequence (P20813 1-491): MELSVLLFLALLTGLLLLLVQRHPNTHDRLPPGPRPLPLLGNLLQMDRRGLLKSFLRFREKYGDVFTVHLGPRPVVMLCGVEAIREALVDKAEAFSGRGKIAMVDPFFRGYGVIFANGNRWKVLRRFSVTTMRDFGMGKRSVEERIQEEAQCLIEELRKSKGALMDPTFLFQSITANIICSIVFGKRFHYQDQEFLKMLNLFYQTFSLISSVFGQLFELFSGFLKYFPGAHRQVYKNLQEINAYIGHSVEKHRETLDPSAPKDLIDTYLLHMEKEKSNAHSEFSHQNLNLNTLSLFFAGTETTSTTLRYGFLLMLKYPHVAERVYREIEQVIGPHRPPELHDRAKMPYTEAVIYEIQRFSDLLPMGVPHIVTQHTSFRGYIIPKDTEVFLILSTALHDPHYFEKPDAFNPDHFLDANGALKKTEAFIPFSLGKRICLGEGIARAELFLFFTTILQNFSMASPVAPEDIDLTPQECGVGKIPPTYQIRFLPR

hERG Channel, sequence (Q12809 whole entry): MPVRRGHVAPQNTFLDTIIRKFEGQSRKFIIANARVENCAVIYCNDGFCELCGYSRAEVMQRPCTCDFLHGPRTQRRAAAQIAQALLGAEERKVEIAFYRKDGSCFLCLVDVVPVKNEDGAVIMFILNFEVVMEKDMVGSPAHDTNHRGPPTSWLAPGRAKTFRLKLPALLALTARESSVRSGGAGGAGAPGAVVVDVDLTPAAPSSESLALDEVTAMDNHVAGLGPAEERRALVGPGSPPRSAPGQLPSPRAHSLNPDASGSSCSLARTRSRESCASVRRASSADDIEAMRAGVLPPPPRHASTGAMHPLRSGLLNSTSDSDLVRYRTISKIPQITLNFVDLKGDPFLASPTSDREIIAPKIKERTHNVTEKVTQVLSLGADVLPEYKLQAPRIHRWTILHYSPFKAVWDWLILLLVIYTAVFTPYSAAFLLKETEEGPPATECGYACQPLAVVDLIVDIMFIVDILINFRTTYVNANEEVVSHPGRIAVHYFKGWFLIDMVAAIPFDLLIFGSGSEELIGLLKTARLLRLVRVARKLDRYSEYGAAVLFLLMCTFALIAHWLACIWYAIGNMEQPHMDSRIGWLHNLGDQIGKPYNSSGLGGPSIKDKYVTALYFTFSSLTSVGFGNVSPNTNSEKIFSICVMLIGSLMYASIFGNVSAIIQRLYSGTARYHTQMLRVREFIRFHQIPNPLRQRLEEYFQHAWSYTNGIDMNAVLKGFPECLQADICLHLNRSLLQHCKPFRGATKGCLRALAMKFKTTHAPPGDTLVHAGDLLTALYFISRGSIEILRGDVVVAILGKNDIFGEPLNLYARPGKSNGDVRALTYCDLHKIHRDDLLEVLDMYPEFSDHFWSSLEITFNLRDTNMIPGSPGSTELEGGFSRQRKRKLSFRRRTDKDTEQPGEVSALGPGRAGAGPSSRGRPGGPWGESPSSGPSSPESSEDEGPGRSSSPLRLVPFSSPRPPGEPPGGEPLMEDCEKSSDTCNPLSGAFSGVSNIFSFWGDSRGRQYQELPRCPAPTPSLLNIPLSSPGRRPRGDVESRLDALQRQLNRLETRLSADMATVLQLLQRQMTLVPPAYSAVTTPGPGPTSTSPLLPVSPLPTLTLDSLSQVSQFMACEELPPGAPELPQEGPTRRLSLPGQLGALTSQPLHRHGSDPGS
CYP450 2D6, sequence (P10635 whole entry): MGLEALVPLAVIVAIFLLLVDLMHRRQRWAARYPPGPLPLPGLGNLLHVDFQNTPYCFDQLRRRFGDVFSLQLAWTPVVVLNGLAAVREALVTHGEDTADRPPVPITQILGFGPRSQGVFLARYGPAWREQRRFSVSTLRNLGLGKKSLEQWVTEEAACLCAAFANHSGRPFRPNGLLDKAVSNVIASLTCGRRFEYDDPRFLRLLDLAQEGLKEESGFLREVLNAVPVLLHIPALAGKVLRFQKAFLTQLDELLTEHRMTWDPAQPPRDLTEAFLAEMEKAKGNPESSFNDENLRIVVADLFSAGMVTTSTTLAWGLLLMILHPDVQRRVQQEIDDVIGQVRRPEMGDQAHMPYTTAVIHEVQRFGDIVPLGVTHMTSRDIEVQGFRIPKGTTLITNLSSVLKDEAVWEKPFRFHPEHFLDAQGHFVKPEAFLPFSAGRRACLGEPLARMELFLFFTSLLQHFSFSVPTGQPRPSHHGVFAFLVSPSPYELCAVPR

SMILES	Microsome stability, % Remaining @1 hour [1] [%]	A − B Permeability Ranking (Caco-2)	Microsome stability, % Remaining @1 hour [2] [%]	Plasma stability, % Remaining @2 hour [3] [%]	Plasma stability, % Remaining @2 hour [4] [%]	Plasma stability, % Remaining @2 hour [5] [%]	CYP450 Panel 2D6 (CYP450 2D6)	pERK: total ERK (% relative to vehicle) (pERK in A549 (KRAS-G12S); Table 8A) [%]	pERK: total ERK (% relative to vehicle) (pERK in A549 (KRAS-G12S); Table 8B) [%]	CYP450 Panel 1A2 (CYP450 1A2)	IC50 (hERG Channel) [µM]	eLogD (lipophilicity; pH = 7.4) [6]	Microsome stability, % Remaining @1 hour [7] [%]	CYP450 Panel 2B6 (CYP450 2B6) [%]	Mean Papp A − B (Caco-2)	Mean Papp B − A (Caco-2)	IC50 (pERK in A549 (KRAS-G12S); Homo sapiens, A549, 2 hr incubation, read-out: pERK IC50 (A549) [12-point dose]) [µM]	chromatographic logD [6]
Cn1cnc2c(F)c(Nc3ccc(Br)cc3Cl)c(C(=O)NOCCO)cc21 [Reference 1, Selumetinib]	75.8	High	54.6	98.1	94.9	104.8	5.0	0.48	2.40	8.3	> 30	3.6	97.5	30.2	–	–	–	–
CNS(=O)(=O)Nc1cccc(Cc2c(CN(C)C)c3ccc(OC(=O)N(C)C)cc3oc2=O)c1F [Compound A, 4-((dimethylamino)methyl)-3-(2-fluoro-3-((N-methylsulfamoyl)amino)benzyl)-2-oxo-2H-chromen-7-yl dimethylcarbamate]	51.7	High	28.8	95.1	106.4	90.6	−3.7	–	–	4.8	26.2	3.0	76.5	14.8	13.0 10^−6 cm/s	21.0 10^−6 cm/s	0.0198	3
